Assay results reported in patent US5294618A, “Octahydrobenzisoquinoline derivatives as antipsychotic agents” (Merck Sharp & Dohme Limited, priority 1989, dated 1994).

What was measured:
sigma recognition site = details: cited from earlier work
sigma sites = target: T1, sigma sites (Mus musculus, UniProt O55242); experiment: Displacement of tritiated (+)-SKF 10047 sigma ligand in vivo; details: sc, s.c. dosing, read-out: effective dose for displacing 50% of ligand (ED50)
T1 construct: displace tritiated sigma ligands in vivo; from tissue; host or cells: sites in the living animal after s.c. dosing
Procedure: The ability of the test compounds to displace tritiated sigma ligands in vivo was determined by a modification of the method of Ferris et al., Life Sci., 1986, 38, 2329. In these experiments the sigma ligand used was tritiated (+)-SKF 10047.

dopamine D2 receptors = details: cited from earlier work
[1] = system: N-methyl-D-aspartate (NMDA) ion-channel complex; details: cited from earlier work
[2] = Indian J. Chem., Sect. B, 1979, 17, 239; cited from earlier work

T1 sequence (O55242 whole entry): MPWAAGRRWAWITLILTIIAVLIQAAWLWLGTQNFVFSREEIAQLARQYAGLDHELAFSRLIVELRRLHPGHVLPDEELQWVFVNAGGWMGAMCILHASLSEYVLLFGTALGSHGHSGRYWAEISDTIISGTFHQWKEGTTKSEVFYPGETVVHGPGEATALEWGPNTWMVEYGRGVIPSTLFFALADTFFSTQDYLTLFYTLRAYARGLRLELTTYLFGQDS

## O=C(CCCN1CCC(O)(c2ccc(Cl)cc2)CC1)c1ccc(F)cc1 [haloperidol]
Sigma recognition site; sigma sites and D2 receptors
  relative potency at sigma sites versus D2 receptors: equally potently

## CCCCN1CC[C@H]2c3ccccc3CC[C@@H]2C1 (relative stereo) [Example 2, trans-3-Butyl-1,2,3,4,4a,5,6,10b-octahydrobenz[f]isoquinoline]
Sigma sites
  ED50: < 1 mg/kg

## C[C@@H]1CN(CCCn2c3ccccc3c3ccccc32)C[C@H](C)N1 [rimcazole]
Sigma recognition site
  potency/affinity at sigma sites: only moderate potency
Dopamine D2 receptors
  activity at dopamine D2 receptors: essentially inactive

## C=CCN1CCC2(C)c3cc(O)ccc3CC1C2C (stereo not drawn) [N-allylnormetazocine (SKF 10047), N-allylnormetazocine]
Sigma recognition site
  potency/affinity at sigma sites: having an affinity
[1]
  interaction with NMDA ion-channel complex: interacts strongly

## c1ccc2c(c1)CC[C@@H]1CN(C3CCCCC3)CC[C@@H]21 (relative stereo) [Example 4, trans-3-Cyclohexyl-1,2,3,4,4a,5,6,10b-octahydrobenz[f]isoquinoline]
Sigma sites
  ED50: < 1 mg/kg

## O=C(CCCN1CCC2c3ccccc3CCC2C1)c1ccc(F)cc1 (stereo not drawn) [3-[3-(4-fluorobenzoyl)propyl]-1,2,3,4,4a,5,6,10b-octahydrobenz[f]isoquinoline]
[2]
  CNS depressant activity: weak CNS depressant activity
  hypotensive activity: significant hypotensive activity
